# Measured values as given in patent US20100093760A1, “METHODS FOR IDENTIFYING COMPOUNDS THAT MODULATE CELL SIGNALING AND METHODS EMPLOYING SUCH COMPOUNDS” (The General Hospital Corporation, priority 2006, published 2010).
# “Also recorded” adds a separate entry of the source. Read-outs that look alike come from different tables or passages of the source.
# How the values were obtained:
# [1] = test system: BMP-mediated SMAD1/5/8 phosphorylation; assay: Immunoblot of BMP-induced SMAD1/5/8 phosphorylation in PASMCs; format: cell-based, murine; conditions: for IC50: Mus musculus, PASMC
# Description: Wild-type and BMPR-II-deficient PASMC were isolated as previously described (Yu et al., J. Biol. Chem. 280:24443-24450, 2005), and cultured in RPMI medium (Invitrogen) supplemented with 10% FBS. C2C12 cells (American Type Culture Collection, Manassas, Va.) were cultured in DMEM supplemented with glutamine and 10% FBS. HepG2 cells and Hep3B cells (ATCC) were cultured in Minimal Essential Alpha Medium with L-glutamine (α-MEM, Invitrogen) containing 10% FBS. For studies of SMAD activation in vitro, PASMC were incubated in 0.5% FCS RPMI for 24 hours, followed by preincubation with drug compounds, noggin, or vehicle for 30 minutes, followed the addition of recombinant BMPs 2, 4, 6, or 7, or TGF-β1 or Activin A (R&D Systems, Minneapolis, Minn.) for 30 minutes.
# Cell extracts or tissues were mechanically homogenized in SDS-lysis buffer (62.5 mM Tris-HCl (pH 6.8), 2% SDS, 10% glycerol, 50 mM DTT, 0.01% bromophenol blue); separated by SDS-PAGE; immunoblotted with anti-phospho-SMAD1/5/8, anti-phospho-SMAD2 (Cell Signaling, Beverly, Mass.), or anti-α-tubulin (Upstate/Millipore, Billerica, Mass.) Abs; and visualized using ECL Plus (GE Healthcare, Piscataway, N.J.). Levels of immunoreactive proteins were quantitated by ImageQuant software on a Storm phosphorimager (GE Healthcare).
# The statistical significance of compared measurements was measured using the student's two-tailed T-test or one-way ANOVA with Bonferroni correction. Hill plot analysis of Compound C/Dorsomorphin inhibition of SMAD1/5/8 phosphorylation was performed using GraFit software (Erithacus Software, Surrey, England).
# MAPK p38 = assay: Immunoblot of BMP4-mediated MAPK p38 phosphorylation in PASMCs; format: cell-based, murine; conditions: BMP4 20 ng/ml, 0.2-40 μM
# zebrafish = assay: Zebrafish bone mineralization (calcein staining); format: in vivo; conditions: at 10 dpf
# Description: At 5 dpf and onward, larvae were fed for 1 hour every other day. […] At 10 dpf, larvae were immersed in calcein (0.2%) for 30 minutes, as previously described (Du et al., Dev. Biol. 238:239-246, 2001). […] Calcified skeletal structures were visualized by green fluorescence and the number of vertebral bodies counted.
# [2] = test system: zebrafish vascular development (KDR); assay: Zebrafish vascular development (effects of KDR inhibition); format: in vivo; conditions: at the doses used for dorsalization
# AMP kinase = conditions: Zhou et al. 2001; cited from earlier work
smiles,measurement,setting,value
c1cc(-c2cnn3cc(-c4ccc(OCCN5CCCCC5)cc4)cnc23)ccn1 [Compound C/Dorsomorphin],IC50,"[1]; FIG. 6, read-out: IC50, activation of SMADs 1, 5, and 8 by BMP4",500 nM
same,IC50,"[1]; PASMCs, Hill plot, 0.1-50 μM, read-out: functional IC50, BMP4-stimulated SMAD1/5/8 phosphorylation",470 nM
same,level of phosphorylated SMAD1/5/8 in cells not treated with BMP,"[1]; PASMCs, 4 μM",below basal levels
same,"effect on activation of SMAD1/5/8 by BMPs 2, 4, 6, and 7","[1]; PASMCs, 4 μM, BMPs 10 ng/ml, 30 minutes",blocking; also recorded: inhibited
same,effect on BMP4-mediated SMAD1/5/8 phosphorylation,"[1]; PASMCs, BMP4 20 ng/ml, 0.2-40 μM pretreatment 30 minutes",inhibited activation of SMADs 1/5/8 dose dependently; also recorded: dose-dependent inhibition
same,effect on BMP4-mediated phosphorylation of MAPK p38,MAPK p38,without affecting MAPK p38 activation; also recorded: without inhibiting p38 activation; also recorded: did not affect; also recorded: does not exhibit significant inhibition
same,number of mineralized vertebrae,"zebrafish; 4 μM from 24 hpf, P<0.001 vs DMSO",significant decrease
same,effect on vertebral and craniofacial bone calcification (calcein staining),zebrafish; 1-4 μM from 24 hpf,inhibition of bone mineralization; also recorded: disrupts vertebral bone mineralization; also recorded: disrupts craniofacial bone mineralization; also recorded: inhibits bone mineralization; also recorded: decrease in vertebral segment and craniofacial bone calcification; also recorded: reduced vertebral segment and craniofacial bone calcification
same,viability and gross morphology,zebrafish; 1-4 μM from 24 hpf,morphologically and functionally normal; also recorded: without disrupting overall morphology; also recorded: viable fish at 10 dpf without evidence of dorsalization; also recorded: morphologically grossly normal and viable
same,effects of KDR inhibition on vascular development (intersomitic blood vessels),[2],did not observe any of the known effects of KDR inhibition
same,IC50,AMP kinase,15000 to 30000 nM
